{"source": "patent US20110009437A1", "about": "“CARBOXAMIDE-HETEROARYL DERIVATIVES FOR THE TREATMENT OF DIABETES” (MERCK PATENT GESELLSCHAFT MIT BESCHRANKTER HAFTUNG, priority 2008, published 2011)"}
{"target": "T1, Glucokinase (Homo sapiens, UniProt P35557)", "T1 sequence (P35557 1-465)": "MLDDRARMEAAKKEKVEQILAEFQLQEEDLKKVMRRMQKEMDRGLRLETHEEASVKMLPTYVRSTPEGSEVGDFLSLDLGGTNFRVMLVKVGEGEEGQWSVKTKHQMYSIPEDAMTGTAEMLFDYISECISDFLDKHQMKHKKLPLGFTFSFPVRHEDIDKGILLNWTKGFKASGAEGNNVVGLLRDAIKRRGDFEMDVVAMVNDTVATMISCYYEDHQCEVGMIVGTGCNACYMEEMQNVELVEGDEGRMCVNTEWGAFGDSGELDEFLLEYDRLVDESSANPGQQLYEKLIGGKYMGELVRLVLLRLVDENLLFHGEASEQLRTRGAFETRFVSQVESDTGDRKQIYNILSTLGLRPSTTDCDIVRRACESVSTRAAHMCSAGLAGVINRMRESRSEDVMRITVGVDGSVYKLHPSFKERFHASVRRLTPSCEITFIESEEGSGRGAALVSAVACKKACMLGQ", "experiment": "Glucokinase Activation Screening Assay (coupled enzyme assay with PK/LDH)", "type": "biochemical", "conditions": "human GK enzyme", "experimental": "GK activity (human or rat enzyme) is measured by a coupled enzyme assay using pyruvate kinase (PK) and lactate dehydrogenase (LDH) as coupling enzymes. GK activity is calculated from the decline in NADH monitored photometrically with a microtiter plate (MTP) reader at 340 nm. For screening purposes, the GK assay is routinely run in a 384-MTP format, in a total volume of 33 μl/well. 10 μl of the ATP-regeneration solution (in HEPES-buffer*, pH 7.0, 6.73 U/ml pyruvate kinase, 6.8 U/ml lactate dehydrogenase) and 10 μl of the glucokinase-/glucose solution (15 μg/ml, 6.6 mM glucose in HEPES-buffer*, pH 7.0; the concentration of the glucose stock-solution was 660 mM in Millipore H2O) were mixed together with […] of a 10% DMSO solution (in HEPES-buffer*, pH 7.0) containing 3.3-fold the amounts of the compounds to achieve final compound concentrations in the range between 1 nM to 30 μM (sometimes 300 μM) in the assay solution (s. below). The solutions were mixed for 5 sec, and after a centrifugation at 243×g for 5 min, the solutions were preincubated for 25 min at room temperature.\nThe reaction was started by the addition of 10 μl of the NADH-/ATP-solution (4.29 mM NADH, 4.95 mM ATP, in HEPES-buffer*). The MTP was shaken for 5 sec., and then, the absorbance at 340 nm was monitored continuously in a MTP-reader (TECAN Spectro fluor plus) for the next 27 min (with a MTP-cycling time of 199 sec.). The final concentrations of the various components were as follows: 49.5 mM Hepes, pH 7.0, 1.49 mM PEP,1,3 mM NADH, 49.5 mM KCl, 4.96 mM MgCl2, 1.5 mM Mg-ATP, 1.98 mM DTT, 2.04 U/ml pyruvate kinase, 2.06 U/ml lactate-dehydrogenase, 0.91% DMSO, 0.15 μg/well glucokinase, and test compounds in the range between 1 nM and […] The change in the optical density (ΔOD340 nm) in the presence of the compound was expressed relative to the ΔOD340 nm, ctrl of the control incubation (in the presence of 2 mM glucose and 0.91% DMSO), taking into account the optical density of the blank sample (incubation in the absence of 2 mM glucose). For the determination of the half maximal effective concentration (EC50), the %-Ctrl-values were plotted in a semi-logarithmic graph against the conc. of the compound of interest. The data points were fitted to a sigmoid curve function (f(x)=((%-Ctrlmax−%-Ctrlmin)/(1−(EC50/x**^n(Hill)))+%-Ctrlmin)) by a non-linear regression analysis.\n*Hepes-buffer (50 mM Hepes, pH 7.0, 5 mM MgCl2, 50 mM KCl, 1.5 mM PEP, 0.1% BSA). DTT was added to the Hepes-buffer from a 200× stock solution (in Millipore H2O) freshly each day. The final concentration of DTT in the Hepes-buffer is 2 mM.", "units": {"fold activation (human)": "fold"}}
{"compound": "Cn1ccc(NC(=O)c2cc(Cl)nc(Oc3ccccc3)c2)n1", "note": "[B5, 2-Chloro-N-(1-methyl-1H-pyrazol-3-yl)-6-phenoxy-isonicotinamide]", "fold activation (human)": 1.3}
{"compound": "COCCN(C)c1cc(C(=O)Nc2ccn(C)n2)cc(Oc2ccccc2)n1", "note": "[B6, 2-[(2-Methoxy-ethyl)-methyl-amino]-N-(1-methyl-1H-pyrazol-3-yl)-6-phenoxy-isonicotinamide]", "fold activation (human)": 3.4}
{"compound": "COCCN(C)c1cc(C(=O)Nc2ccn(Cc3cccnc3)n2)cc(Oc2ccccc2)n1", "note": "[B4, 2-[(2-Methoxy-ethyl)-methyl-amino]-6-phenoxy-N-(1-pyridin-3-ylmethyl-1H-pyrazol-3-yl)-isonicotinamide]", "fold activation (human)": 1.8}
{"compound": "CN(Cc1ccccc1)c1cc(C(=O)Nc2ccn(C)n2)cc(Oc2ccccc2)n1", "note": "[B8, 2-(Benzyl-methyl-amino)-N-(1-methyl-1H-pyrazol-3-yl)-6-phenoxy-isonicotinamide]", "fold activation (human)": 1.4}
{"compound": "COCC(C)Oc1cc(OC(C)COC)nc(C(=O)Nc2ccn(C)n2)n1", "note": "(stereo not drawn) [B7, 4,6-Bis-(2-methoxy-1-methyl-ethoxy)-pyrimidine-2-carboxylic acid (1-methyl-1H-pyrazol-3-yl)-amide]", "fold activation (human)": 1.3}
{"compound": "CN(C)c1cc(C(=O)Nc2ccn(Cc3cccnc3)n2)cc(Oc2ccccc2)n1", "note": "[B2, 2-Dimethylamino-6-phenoxy-N-(1-pyridin-3-ylmethyl-1H-pyrazol-3-yl)-isonicotinamide]", "fold activation (human)": 3.3}
